{"source": "paper PMC4843953", "about": "“Eukaryotic elongation factor 2 kinase regulates the synthesis of microtubule‐related proteins in neurons” (Journal of Neurochemistry, 2015)", "format_in_all_cases": "cell-based, mice", "key": {"[1]": {"test_system": "eEF2 phosphorylation", "experiment": "p-eEF2 levels in primary cortical neurons (immunoblot)", "text": "Primary neuronal cortical cultures were isolated from P0 or P1 C57BL/6J mice, or eEF2K‐WT or KO mice of either sex as previously described (Wong et al. 2005; Kenney et al. 2015). eEF2K mice were generated by Taconic Biosciences, Cranbury, NJ, USA; all mice were bred from colonies maintained at the Southampton General Hospital. All procedures involving mice were done in accordance with United Kingdom Animals (Scientific Procedures) Act 1986 and approved by the University of Southampton.\nFigure 1 Combining pharmacological and genetic strategies with stable isotope labeling of amino acids in cell culture (SILAC)/bio‐orthogonal non‐canonical amino acid tagging (BONCAT) labeling to identify proteins whose synthesis is regulated by eEF2K. (a) Top, the effect of bicuculline administration on p‐eEF2 levels. […] Bottom, examination of the effect of bicuculline on p‐eEF2 levels in neurons from eEF2K‐WT or KO mice. Blots are representative of three to four independent experimental replicates. (b) Experimental designs for combined SILAC/BONCAT labeling to identify proteins whose synthesis are affected by eEF2K inhibition. […] Protein localization was determined using DAVID (Huang et al. 2009), or where DAVID lacked annotation, NCBI.\n(§1) Immunoblot data were quantified using LICOR software (version 3.0, Lincoln, NE, USA). Data were analyzed using two‐way ANOVAs. […]"}, "[2]": {"test_system": "newly synthesized PPP1CC", "experiment": "Newly synthesized protein, AHA labeling, streptavidin isolation and western blot", "conditions": "AHA labeling 1 h; 2 × 2 ANOVA", "procedure": "(§2) Neurons were starved of Met for 30 min in Met‐free neurobasal medium and then labeled for 1 h in the presence of 2 mM AHA. After labeling, neurons were washed three times in ice cold phosphate‐buffered saline (PBS) and then lysed [50 mM Tris‐HCl, 50 mM β‐glycerophosphate, 1 mM EGTA, 1 mM EDTA, 1% Triton‐X, 2 × protease inhibitors (Roche Molecular Biochemicals, Indianapolis, IN, USA)] on ice. The lysate was centrifuged at 14 000 g for 10 min at 4°C and the supernatant was used for click‐chemistry using a biotin‐alkyne (B10185; Invitrogen, Carlsbad, CA, USA) and the protein reaction kit (C10276; Invitrogen) so that only newly synthesized proteins are tagged with biotin. Un‐reacted biotin was removed via gel‐filtration (GE; PD MiniTrap G‐25) using PBS‐T (0.01% Tween) as flow‐through. […]\nas §1\n(§3) Figure 3 Confirmation of two eEF2K targets identified via stable isotope labeling of amino acids in cell culture (SILAC)/bio‐orthogonal non‐canonical amino acid tagging (BONCAT). […] (c) Quantification of western blot data. *p < 0.01 via 2 × 2 (bicuculline × eEF2K inhibitor) ANOVA; n = 8–9."}, "[3]": {"test_system": "newly synthesized NSF", "experiment": "Newly synthesized protein, AHA labeling, streptavidin isolation and western blot", "conditions": "AHA labeling 1 h; 2 × 2 ANOVA", "procedure": "as §2, §1, §3"}, "[4]": {"test_system": "mRNA levels (Calm, Nsf, Ppp1 cc, Kif5a, Map2, Map1b, Arc)", "experiment": "qRT-PCR of total mRNA levels in primary cortical neurons", "conditions": "bicuculline 50 μM, 60 min; p < 0.001", "procedure": "Neurons were treated with bicuculline (50 μM) or vehicle dimethylsulfoxide for 60 min prior to lysis. JAN‐452 or JAN‐384 was administered 30 min prior to bicuculline/vehicle. RNA was purified from cultures using the GeneJET RNA purification kit (K0731; Thermo Fisher, Waltham, MA, USA) and QIAshredder spin columns (79656; Qiagen, Valencia, CA, USA). One μg of RNA was reverse transcribed using the ImProm‐II reverse transcription system (Promega, Madison, WI, USA). qPCR was performed with 1 μL of cDNA using the GoTaq qPCR master mix (A6001; Promega) on a StepOne real‐time PCR system (Life Technologies, Grand Island, NY, USA). PCR conditions were as follows: 95°C for 2 min followed by 40 cycles of 95°C for 15 s and 60°C for 45 s. Median Ct values from samples run in triplicate were used for analysis using the ΔΔCt method with Gapdh as the control. Prior to use in experiments, all primer pairs were determined to be efficient (100 ± 10%) and yield only one appropriately sized product based on melt‐curve analysis and agarose gel electrophoresis. Primers were as follows: Calm: 5′‐[…]‐3′ and 5′‐[…]‐3′; Nsf: 5′‐ […]‐3′ and 5′‐[…]‐3′; Ppp1 cc: 5′‐ […]‐3′ and 5′‐[…]‐3′; Kif5a: 5′‐ […]‐3′ and 5′‐[…]‐3′; Map2: 5′‐ […]‐3′ and 5′‐[…]‐3′; Map1b: 5′‐ CGGACAGTGCTTTGAGAAC‐3′ and 5‐GTGAGGCTGGCTTTGTTG‐3′; Gapdh: 5′‐[…]‐3′ and 5′‐[…]‐3′; Arc: 5′‐[…]‐3′ and 5′‐[…]‐3′. […]"}}}
{"smiles": "CN1CCc2cc3c(cc2[C@H]1[C@@H]1OC(=O)c2c1ccc1c2OCO1)OCO3", "note": "[bicuculline]", "values": [{"measurement": "eEF2 phosphorylation in neurons from eEF2K-KO mice", "setting": "[1]; eEF2K-KO neurons, completely devoid of eEF2 phosphorylation", "result": "did not affect"}, {"measurement": "p-eEF2 level after bicuculline administration", "setting": "[1]; primary cortical neurons, back to baseline levels after 60 min", "result": "rapid increase"}, {"measurement": "amount of newly synthesized PPP1CC", "setting": "[2]", "result": "no effect"}, {"measurement": "amount of newly synthesized NSF", "setting": "[3]", "result": "no effect"}, {"measurement": "Arc mRNA", "setting": "[4]", "result": "large increase"}]}
